What was measured:
Aurora kinase B-A = Aurora kinase B-A (Xenopus laevis, UniProt Q6DE08); test: Inhibition of Xenopus laevis Aurora kinase B/INCEP complex using gamma-[32P]ATP incubated for 1 hr by autoradiography
Aurora kinase B = Aurora kinase B (Homo sapiens, UniProt Q96GD4); test: Inhibition of human Aurora kinase B/INCEP complex expressed in Escherichia coli BL21 (DE3) using gamma-[32P]ATP incubated for 1 hr by autoradiography
Aurora kinase A = target: T1, Aurora kinase A (Homo sapiens, UniProt O14965)
T1 sequence (O14965 whole entry): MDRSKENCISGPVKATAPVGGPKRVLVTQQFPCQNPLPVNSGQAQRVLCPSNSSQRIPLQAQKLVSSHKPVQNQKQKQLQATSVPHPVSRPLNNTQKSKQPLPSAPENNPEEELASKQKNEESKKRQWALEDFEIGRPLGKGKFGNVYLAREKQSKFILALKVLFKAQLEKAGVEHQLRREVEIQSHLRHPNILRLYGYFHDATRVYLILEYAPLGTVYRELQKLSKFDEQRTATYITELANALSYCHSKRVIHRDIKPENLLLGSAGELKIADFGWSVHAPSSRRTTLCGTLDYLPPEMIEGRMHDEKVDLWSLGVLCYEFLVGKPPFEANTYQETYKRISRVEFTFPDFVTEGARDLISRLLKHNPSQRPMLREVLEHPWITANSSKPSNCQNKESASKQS
Description: Inhibition of human Aurora kinase A/TPX2 complex using gamma-[32P]ATP incubated for 1 hr by autoradiography

Chain of Aurora kinase B-A (Q6DE08 whole entry): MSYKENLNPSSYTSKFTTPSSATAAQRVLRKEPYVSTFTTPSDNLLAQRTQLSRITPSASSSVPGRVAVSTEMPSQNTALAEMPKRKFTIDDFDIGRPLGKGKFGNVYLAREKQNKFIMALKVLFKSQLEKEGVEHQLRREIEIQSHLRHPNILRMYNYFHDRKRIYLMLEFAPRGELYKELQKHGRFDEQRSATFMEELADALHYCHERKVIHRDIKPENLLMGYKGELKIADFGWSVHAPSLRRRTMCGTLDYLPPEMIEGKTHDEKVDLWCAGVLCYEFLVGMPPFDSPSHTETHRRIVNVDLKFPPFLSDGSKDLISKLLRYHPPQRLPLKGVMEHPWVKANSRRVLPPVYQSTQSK
Chain of Aurora kinase B (Q96GD4 whole entry): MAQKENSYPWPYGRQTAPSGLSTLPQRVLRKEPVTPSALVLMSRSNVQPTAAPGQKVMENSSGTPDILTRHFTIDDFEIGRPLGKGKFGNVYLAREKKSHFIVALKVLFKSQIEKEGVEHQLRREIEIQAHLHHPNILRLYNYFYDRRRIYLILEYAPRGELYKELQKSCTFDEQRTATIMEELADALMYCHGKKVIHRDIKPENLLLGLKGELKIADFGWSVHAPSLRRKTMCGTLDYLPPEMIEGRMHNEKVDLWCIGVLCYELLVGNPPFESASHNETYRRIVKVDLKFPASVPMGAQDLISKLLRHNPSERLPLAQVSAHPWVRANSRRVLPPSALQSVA

IC50 (Aurora kinase B-A) | IC50 (Aurora kinase B) | IC50 (Aurora kinase A) | SMILES
0.045 µM |  |  | COc1cc2c(Nc3ccc(NC(=O)c4ccccc4)cc3)ncnc2cc1OCCCN1CCOCC1
0.003 µM | 0.003 µM | 0.011 µM | CCS(=O)(=O)Nc1ccc2c(c1)/C(=C(/Nc1ccc(CN3CCCCC3)cc1)c1ccccc1)C(=O)N2 [HESPERADIN]
0.019 µM |  |  | Cc1cc(Nc2cc(N3CCN(C)CC3)nc(Sc3ccc(NC(=O)C4CC4)cc3)n2)[nH]n1 [TOZASERTIB]

Reference: ChEMBL document CHEMBL2176926, “Crystal structure of human aurora B in complex with INCENP and VX-680” (J Med Chem, 2012)
